One data set deals with T1, LRRK2 (Homo sapiens, UniProt Q5S007).
T1 construct: wild-type full-length LRRK2 (pcDNA5-LRRK2, RRID: Addgene_229019)
Description: Western blot of Rab8a phosphorylation (pT72) in 293T cells transfected with wild-type LRRK2 and GFP-Rab8a. It is filed as cell-based. To be noted: for toxicity / effect on phosphorylation of Rab8a in cells: 293T cells; for toxicity: any of the concentrations used; for effect on phosphorylation of Rab8a in cells: increasing concentrations. The protocol: For all in cell kinase assays, after 48 hours, transfected cells were treated with either DMSO (control) or the indicated inhibitors for 4 hours at 37°C and 5% CO2. Following treatments, cells were washed three times with ice cold PBS. Cells were then lysed in ice cold radioimmunoprecipitation assay (RIPA) lysis buffer [50 mM tris (pH 8.0), 150 mM NaCl, 1% Triton X-100, 0.1% SDS, 0.5% sodium deoxycholate, and 1 mM DTT] in the presence of complete mini EASYpack protease inhibitor cocktail and the PhosSTOP EASYpack phosphatase inhibitor cocktail (Roche). Resuspended and lysed cells were clarified by centrifugation at 13,000g for 15 min at 4°C. […] The membrane was blocked in 5% milk in 1× Tris-buffered saline (TBS) [20 mM tris (pH 8.0) and 150 mM NaCl] for 1 hour shaking at room temperature. […] Membranes were then washed three times in 1× TBS-T before imaging on Li-COR Odyssey CLx controlled by Imaging Studio software (www.licorbio.com/image-studio, RRID:SCR_015795). […] The signal intensity of each band was assessed using the Analyze>Gels tool. The band intensity for phosphorylated LRRK2 was measured and compared to total LRRK2 levels (run under identical conditions on a separate gel). Band intensity for phosphorylated Rab7 or Rab8a was measured and compared against total GFP-Rab7 or GFP-Rab8a (using anti-GFP antibody) and LRRK1/LRRK2 levels as appropriate. Comparative statistical analysis of phosphorylation levels was analyzed using a one-way analysis of variance (ANOVA) and corrected using Tukey’s multiple comparisons test in GraphPad Prism 10 (www.graphpad.com/, RRID:SCR_002798).
A general note: In western blotting, separated proteins are transferred to a membrane and probed.

Data set [1] relates to LRRK2 S935 phosphorylation. Briefly: Western blot of LRRK2 biomarker site pS935 in transfected 293T cells. It is filed as cell-based, human. To be noted: for pS935 LRRK2/LRRK2 normalized to DMSO, Mean / pS935 LRRK2/LRRK2 normalized to DMSO: 4 h; for pS935 LRRK2/LRRK2 normalized to DMSO, Mean: 3 replicates; for pS935 LRRK2/LRRK2 normalized to DMSO: individual Western blots; for effect on phosphorylation of LRRK2 S935: 293T cells, MLi-2 500 nM. How it is done:
For all in cell kinase assays, after 48 hours, transfected cells were treated with either DMSO (control) or the indicated inhibitors for 4 hours at 37°C and 5% CO2. Following treatments, cells were washed three times with ice cold PBS. Cells were then lysed in ice cold radioimmunoprecipitation assay (RIPA) lysis buffer [50 mM tris (pH 8.0), 150 mM NaCl, 1% Triton X-100, 0.1% SDS, 0.5% sodium deoxycholate, and 1 mM DTT] in the presence of complete mini EASYpack protease inhibitor cocktail and the PhosSTOP EASYpack phosphatase inhibitor cocktail (Roche). Resuspended and lysed cells were clarified by centrifugation at 13,000g for 15 min at 4°C. NuPAGE LDS Sample Buffer (1×) and NuPAGE Sample Reducing Agent (1×; Invitrogen) were added to the clarified supernatants, and the samples were boiled at 95°C for 5 min and spun down at 13,000g for 10 min. For Western blotting, 15 μl of sample was loaded into a NuPAGE 4 to 12% gradient bis-tris gel (Invitrogen) and run at 120 V for 75 min before transfer to polyvinylidene difluoride transfer membrane (0.45-μm pore size, Millipore) for 240 min at 80 V at 4°C. The membrane was blocked in 5% milk in 1× Tris-buffered saline (TBS) [20 mM tris (pH 8.0) and 150 mM NaCl] for 1 hour shaking at room temperature. Primary antibodies [monoclonal rabbit anti-LRRK2 (Abcam, ab133474; RRID: AB_2713963), polyclonal rabbit anti-LRRK1 (Abcam, ab228666), monoclonal rabbit anti-LRRK2 phospho-S935 (Abcam, ab133450; RRID: AB_2732035), monoclonal rabbit anti-Rab8a phospho-T72 (Abcam, ab230260; RRID: AB_2814988), monoclonal rabbit anti-Rab7 phospho-S72 (Abcam, ab302494; RRID: AB_2933985), monoclonal rabbit anti–glyceraldehyde-3-phosphate dehydrogenase (GAPDH; Cell Signalling Technology, 2118; RRID: AB_561053), and monoclonal mouse anti-GFP (Santa Cruz Biotechnology, sc-9996; RRID: AB_627695)] were diluted in 5% milk in TBS and incubated with membrane for 16 hours at 4°C. Following incubation, membranes were washed three times with 1× TBS-T [20 mM tris (pH 8.0), 150 mM NaCl, and 0.1% Tween 20] before incubation with IRDye 680RD goat anti-rabbit IgG (LI-COR, 926-68071; RRID: AB_10956166) and IRDye 800CW goat anti-mouse IgG (LI-COR, 926-32210; RRID: AB_621842) secondary antibodies in 5% milk in 1× TBS for 1 hour at room temperature. Membranes were then washed three times in 1× TBS-T before imaging on Li-COR Odyssey CLx controlled by Imaging Studio software (www.licorbio.com/image-studio, RRID:SCR_015795). Image processing and quantification were performed in ImageJ version 2.14.0 (National Institutes of Health; https://imagej.net/, RRID:SCR_003070). The signal intensity of each band was assessed using the Analyze>Gels tool. The band intensity for phosphorylated LRRK2 was measured and compared to total LRRK2 levels (run under identical conditions on a separate gel). Band intensity for phosphorylated Rab7 or Rab8a was measured and compared against total GFP-Rab7 or GFP-Rab8a (using anti-GFP antibody) and LRRK1/LRRK2 levels as appropriate. Comparative statistical analysis of phosphorylation levels was analyzed using a one-way analysis of variance (ANOVA) and corrected using Tukey’s multiple comparisons test in GraphPad Prism 10 (www.graphpad.com/, RRID:SCR_002798). (For current step-by-step protocol for LRRK transfection and Western blotting, see dx.doi.org/10.17504/protocols.io.kxygx9bozg8j/v1.)

Setting [2] is: GFP-11 tagged WT LRRK2, 5 μM, 4 replicates.

Data on three compounds can be found in PMC12136037, “Type II kinase inhibitors that target Parkinson’s disease–associated LRRK2” (Science Advances, 2025).

Where “and” joins values, the source holds several entries; their conditions need not be identical. Equal values may be shown once.

T1 sequence (Q5S007 whole entry): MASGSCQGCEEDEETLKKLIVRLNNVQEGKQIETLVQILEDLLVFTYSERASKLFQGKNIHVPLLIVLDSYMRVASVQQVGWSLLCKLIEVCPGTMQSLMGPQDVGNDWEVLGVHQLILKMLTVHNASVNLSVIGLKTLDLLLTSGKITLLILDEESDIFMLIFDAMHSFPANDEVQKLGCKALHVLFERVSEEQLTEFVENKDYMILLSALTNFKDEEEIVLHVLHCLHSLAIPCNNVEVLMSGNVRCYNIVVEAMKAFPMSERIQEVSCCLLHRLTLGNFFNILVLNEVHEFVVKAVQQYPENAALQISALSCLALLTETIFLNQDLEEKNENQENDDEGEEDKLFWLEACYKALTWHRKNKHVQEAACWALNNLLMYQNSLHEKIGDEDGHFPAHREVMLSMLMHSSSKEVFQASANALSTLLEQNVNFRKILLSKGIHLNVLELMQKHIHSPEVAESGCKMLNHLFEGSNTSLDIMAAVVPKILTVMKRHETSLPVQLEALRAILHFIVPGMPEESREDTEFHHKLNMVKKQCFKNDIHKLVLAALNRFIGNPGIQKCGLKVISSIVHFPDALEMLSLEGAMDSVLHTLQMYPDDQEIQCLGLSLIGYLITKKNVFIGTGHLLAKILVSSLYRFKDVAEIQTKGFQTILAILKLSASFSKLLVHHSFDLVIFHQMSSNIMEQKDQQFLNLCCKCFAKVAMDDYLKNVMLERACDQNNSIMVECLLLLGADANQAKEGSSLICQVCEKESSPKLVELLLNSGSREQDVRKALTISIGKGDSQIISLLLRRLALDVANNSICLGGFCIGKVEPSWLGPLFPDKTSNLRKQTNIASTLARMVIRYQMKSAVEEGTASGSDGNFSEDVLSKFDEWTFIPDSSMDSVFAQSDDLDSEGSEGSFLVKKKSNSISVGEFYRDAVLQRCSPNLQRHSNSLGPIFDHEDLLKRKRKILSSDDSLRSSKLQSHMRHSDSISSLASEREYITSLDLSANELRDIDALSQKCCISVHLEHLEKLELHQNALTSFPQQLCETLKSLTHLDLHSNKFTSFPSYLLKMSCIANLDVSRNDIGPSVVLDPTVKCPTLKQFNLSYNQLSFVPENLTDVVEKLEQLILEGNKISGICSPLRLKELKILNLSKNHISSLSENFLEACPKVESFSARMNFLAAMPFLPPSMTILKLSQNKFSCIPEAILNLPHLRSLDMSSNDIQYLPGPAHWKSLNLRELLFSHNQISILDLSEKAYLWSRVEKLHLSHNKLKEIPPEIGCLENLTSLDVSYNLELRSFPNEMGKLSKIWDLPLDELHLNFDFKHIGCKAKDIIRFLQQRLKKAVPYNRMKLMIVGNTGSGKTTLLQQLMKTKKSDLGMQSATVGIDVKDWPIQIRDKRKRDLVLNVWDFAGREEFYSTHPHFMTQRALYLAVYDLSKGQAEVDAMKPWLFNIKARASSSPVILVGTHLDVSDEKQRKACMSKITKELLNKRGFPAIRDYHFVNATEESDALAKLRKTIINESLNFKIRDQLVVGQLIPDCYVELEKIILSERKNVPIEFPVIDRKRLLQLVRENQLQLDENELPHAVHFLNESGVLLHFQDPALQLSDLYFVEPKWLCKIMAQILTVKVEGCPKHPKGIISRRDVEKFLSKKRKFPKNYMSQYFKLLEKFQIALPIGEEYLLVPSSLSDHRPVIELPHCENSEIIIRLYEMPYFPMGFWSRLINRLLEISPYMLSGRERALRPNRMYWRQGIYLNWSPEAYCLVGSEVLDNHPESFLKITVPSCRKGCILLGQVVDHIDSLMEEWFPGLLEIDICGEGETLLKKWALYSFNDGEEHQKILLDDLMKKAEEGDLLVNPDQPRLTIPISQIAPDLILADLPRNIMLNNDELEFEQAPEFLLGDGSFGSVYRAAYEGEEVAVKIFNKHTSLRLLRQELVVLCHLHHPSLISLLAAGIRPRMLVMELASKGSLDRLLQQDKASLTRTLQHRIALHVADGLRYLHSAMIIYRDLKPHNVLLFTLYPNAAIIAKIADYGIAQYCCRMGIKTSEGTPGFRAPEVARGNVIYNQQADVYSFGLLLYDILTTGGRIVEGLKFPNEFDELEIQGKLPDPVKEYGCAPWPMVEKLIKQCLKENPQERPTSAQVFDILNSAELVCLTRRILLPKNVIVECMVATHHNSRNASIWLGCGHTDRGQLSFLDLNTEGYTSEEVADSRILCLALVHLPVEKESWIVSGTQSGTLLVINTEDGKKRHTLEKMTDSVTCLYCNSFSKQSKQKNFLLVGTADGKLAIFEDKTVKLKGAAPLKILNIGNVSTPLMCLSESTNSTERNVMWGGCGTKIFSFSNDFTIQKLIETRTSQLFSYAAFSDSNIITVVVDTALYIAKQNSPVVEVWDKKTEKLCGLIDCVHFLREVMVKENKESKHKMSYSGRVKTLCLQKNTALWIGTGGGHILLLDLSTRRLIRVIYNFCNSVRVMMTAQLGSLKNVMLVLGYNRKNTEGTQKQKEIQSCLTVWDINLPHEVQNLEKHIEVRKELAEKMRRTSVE

As to `Cc1ccc(-n2nc(C(C)(C)C)cc2NC(=O)Nc2cccc(-c3c[nH]c4nc(Cl)nc(N5CCOCC5)c34)c2)cc1` [Compound 30], the “pRab8/Rab8/LRRK2 normalized to DMSO, Mean” value was determined as 1.123 at LRRK2 (250 nM, 4 h, 3 replicates); 0.8664 on LRRK2 (500 nM, 4 h, 3 replicates); 0.8611 on LRRK2 (1 μM, 4 h, 3 replicates); 0.2926 on LRRK2 (5 μM, 4 h, 3 replicates); 0.2543 at LRRK2 (10 μM, 4 h, 3 replicates); 0.2436 at LRRK2 (setting [2]). The “pRab8/Rab8/LRRK2 normalized to DMSO” value is 1.0545 and 1.033 and 1.2826 at LRRK2 (250 nM, 4 h, individual Western blots, listed as 277); 0.8279 and 0.7001 and 1.071 at LRRK2 (500 nM, 4 h, individual Western blots, listed as 277); 0.8817 and 0.6143 and 1.087 at LRRK2 (1 μM, 4 h, individual Western blots, listed as 277); 0.3266 and 0.2385 and 0.3127 at LRRK2 (5 μM, 4 h, individual Western blots, listed as 277); 0.2723 and 0.2085 and 0.282 on LRRK2 (10 μM, 4 h, individual Western blots, listed as 277); 0.1001 and 0.2331 and 0.598 and 0.04303 on LRRK2 (GFP-11 tagged WT LRRK2, 5 μM, individual blots, normalized to WT DMSO, listed as RN277). Besides, the toxicity entry on LRRK2 is listed as “Toxicity did not appear to be an issue”. Moreover, the “effect on phosphorylation of Rab8a in cells” value on LRRK2 is given as “reduced phosphorylation of Rab8a in a dose-dependent manner”. In addition, the “pS935 LRRK2/LRRK2 normalized to DMSO, Mean” value in data set [1] (250 nM) is listed as 0.9168; in data set [1] (500 nM), 0.8971; in data set [1] (1 μM) it was 0.8756; in data set [1] (5 μM) it was 0.9338; in data set [1] (10 μM) it was 0.9235. In addition, the “pS935 LRRK2/LRRK2 normalized to DMSO” value in data set [1] (250 nM, listed as 277) is 0.9442 and 0.8289 and 0.9773; in data set [1] (500 nM, listed as 277), 0.9489 and 0.8102 and 0.9321; in data set [1] (1 μM, listed as 277), 1.005 and 0.7529 and 0.869; in data set [1] (5 μM, listed as 277), 0.9369 and 0.9197 and 0.9447; in data set [1] (10 μM, listed as 277), 0.9197 and 0.9052 and 0.9455. Moreover, the “effect on phosphorylation of LRRK2 S935” value in data set [1] is “none of the tested type II inhibitors (broad-spectrum kinase inhibitor Ponatinib or our top compounds RN277 and RN341) reduced the phosphorylation level at this site”.
For the compound `CCSc1nc(NC)c2c(-c3cccc(NC(=O)Nc4cc(C(C)(C)C)nn4-c4ccc(C)cc4)c3)c[nH]c2n1` [Compound 32], the “pRab8/Rab8/LRRK2 normalized to DMSO, Mean” value at LRRK2 (250 nM, 4 h, 3 replicates) is recorded as 1.109; on LRRK2 (500 nM, 4 h, 3 replicates), 0.9957; at LRRK2 (1 μM, 4 h, 3 replicates) it was 0.8556; at LRRK2 (5 μM, 4 h, 3 replicates), 0.5047; at LRRK2 (10 μM, 4 h, 3 replicates), 0.408; at LRRK2 (setting [2]), 0.2782. For the same compound, the “pRab8/Rab8/LRRK2 normalized to DMSO” value at LRRK2 (250 nM, 4 h, individual Western blots, listed as 341) was 1.128 and 0.9817 and 1.217; on LRRK2 (500 nM, 4 h, individual Western blots, listed as 341), 1.05 and 0.7587 and 1.178; on LRRK2 (1 μM, 4 h, individual Western blots, listed as 341) it was 0.8182 and 0.7772 and 0.9713; on LRRK2 (5 μM, 4 h, individual Western blots, listed as 341), 0.5692 and 0.3629 and 0.5821; at LRRK2 (10 μM, 4 h, individual Western blots, listed as 341), 0.4385 and 0.2564 and 0.5293; at LRRK2 (GFP-11 tagged WT LRRK2, 5 μM, individual blots, normalized to WT DMSO, listed as RN341), 0.1752 and 0.6963 and 0.1155 and 0.1257. At LRRK2, the toxicity entry is listed as “Toxicity did not appear to be an issue”. Also, the “effect on phosphorylation of Rab8a in cells” value at LRRK2 was “reduced phosphorylation of Rab8a in a dose-dependent manner”. In addition, the “pS935 LRRK2/LRRK2 normalized to DMSO, Mean” value in data set [1] (250 nM) came to 0.9603; in data set [1] (500 nM), 0.9221; in data set [1] (1 μM), 0.8783; in data set [1] (5 μM) it was 0.8974; in data set [1] (10 μM), 0.9517. The “pS935 LRRK2/LRRK2 normalized to DMSO” value is 0.9872 and 0.9193 and 0.9743 in data set [1] (250 nM, listed as 341); 0.9409 and 0.8795 and 0.9459 in data set [1] (500 nM, listed as 341); 0.9145 and 0.9018 and 0.8186 in data set [1] (1 μM, listed as 341); 0.9195 and 0.9472 and 0.8255 in data set [1] (5 μM, listed as 341); 0.9588 and 0.9056 and 0.9906 in data set [1] (10 μM, listed as 341). In data set [1], the “effect on phosphorylation of LRRK2 S935” value was “none of the tested type II inhibitors (broad-spectrum kinase inhibitor Ponatinib or our top compounds RN277 and RN341) reduced the phosphorylation level at this site”.
With `Cc1ccc(C(=O)Nc2ccc(CN3CCN(C)CC3)c(C(F)(F)F)c2)cc1C#Cc1cnc2cccnn12` [Ponatinib, reference compound], the “pRab8/Rab8/LRRK2 normalized to DMSO, Mean” value at LRRK2 (5 μM, 4 h, 3 replicates) is 0.2682. Besides, at LRRK2 (5 μM, 4 h, individual Western blots), the “pRab8/Rab8/LRRK2 normalized to DMSO” value was 0.2608 and 0.2643 and 0.2795. Besides, in data set [1] (5 μM), the “pS935 LRRK2/LRRK2 normalized to DMSO, Mean” value turned out to be 0.91; the “pS935 LRRK2/LRRK2 normalized to DMSO” value is 0.7959 and 0.8749 and 1.059. For the same compound, the “effect on phosphorylation of LRRK2 S935” value in data set [1] is “none of the tested type II inhibitors (broad-spectrum kinase inhibitor Ponatinib or our top compounds RN277 and RN341) reduced the phosphorylation level at this site”.
